# Columns and labels:
# [1] = physchem; conditions: octanol/water
# Description: Partition coefficient (logP)
# [2] = target: T1, Androgen receptor (Rattus norvegicus) (UniProt P15207)
# T1 sequence (whole entry): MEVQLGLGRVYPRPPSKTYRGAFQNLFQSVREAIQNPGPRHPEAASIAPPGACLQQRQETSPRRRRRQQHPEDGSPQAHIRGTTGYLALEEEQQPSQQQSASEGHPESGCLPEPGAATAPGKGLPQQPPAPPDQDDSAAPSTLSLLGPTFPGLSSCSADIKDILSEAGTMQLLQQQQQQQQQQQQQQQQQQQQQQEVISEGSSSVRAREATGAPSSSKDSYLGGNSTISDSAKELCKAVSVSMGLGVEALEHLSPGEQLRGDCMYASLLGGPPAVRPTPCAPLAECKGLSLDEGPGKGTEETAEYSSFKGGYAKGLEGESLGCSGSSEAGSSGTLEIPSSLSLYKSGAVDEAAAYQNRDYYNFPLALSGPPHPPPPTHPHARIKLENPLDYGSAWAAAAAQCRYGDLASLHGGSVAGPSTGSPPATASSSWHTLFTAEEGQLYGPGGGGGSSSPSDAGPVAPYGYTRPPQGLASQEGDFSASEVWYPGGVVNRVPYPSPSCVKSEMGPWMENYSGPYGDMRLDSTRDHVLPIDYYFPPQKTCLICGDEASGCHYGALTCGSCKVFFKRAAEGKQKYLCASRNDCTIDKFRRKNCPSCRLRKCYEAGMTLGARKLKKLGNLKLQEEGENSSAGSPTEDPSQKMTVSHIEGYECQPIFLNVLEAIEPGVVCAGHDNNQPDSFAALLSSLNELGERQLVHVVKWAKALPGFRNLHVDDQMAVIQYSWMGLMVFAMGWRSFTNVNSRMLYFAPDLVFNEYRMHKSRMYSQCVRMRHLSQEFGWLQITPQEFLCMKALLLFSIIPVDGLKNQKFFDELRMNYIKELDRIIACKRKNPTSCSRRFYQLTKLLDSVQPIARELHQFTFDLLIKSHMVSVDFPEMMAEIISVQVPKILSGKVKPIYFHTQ
# Description: Binding selectivity index (BSI) as ratio of RBA for androgen receptor to non-specific binding of R1881
Structure (SMILES),logP [1],BSI [2]
C[C@]12CC[C@H]3[C@@H](CCC4=CC(=O)CC[C@@]43C)[C@@H]1CC[C@@H]2O [TESTOSTERONE],3.45,–
C[C@]12CC[C@H]3[C@@H](CCC4=CC(=O)CC[C@@H]43)[C@@H]1CC[C@@H]2O [NANDROLONE],3.17,–
C[C@]12CC[C@H]3[C@@H](CC[C@H]4CC(=O)CC[C@@H]43)[C@@H]1CC[C@@H]2O,3.85,13.7
C[C@]1(O)CC[C@H]2[C@@H]3CCC4=CC(=O)CCC4=C3C=C[C@@]21C [METRIBOLONE],3.29,100

# — ChEMBL document CHEMBL1128255, “Synthesis of 11 beta-[18F]fluoro-5 alpha-dihydrotestosterone and 11 beta-[18F]fluoro-19-nor-5 alpha-dihydrotestosterone: preparation via halofluorination-reduction, receptor binding, and tissue distribution” (J Med Chem, 1995)
